According to patent US5292737A, “N,N'-bis(sulfonamido)-2-amino-4-iminonaphthalen-1-ones and N,N'-bis(amido)-2-amino-4-iminonaphthalen-1-ones” (Sphinx Pharmaceuticals Corporation, priority 1992, dated 1994):
Where two headings read alike, the source gives them in different places.

Key:
PKC isoenzyme α = target: T1, PKC isoenzyme α (Homo sapiens, UniProt P17252); experiment: Protein kinase C inhibition assay, PKC isoenzyme α; format: biochemical
T1 construct: made in house; host or cells: baculovirus-insect cell expression system
Experimental: (§1) A protein kinase C (PKC) assay is designed to duplicate the in vivo conditions required for protein kinase C function. Therefore, pH, salt and cofactor concentrations are similar to physiologic levels. Either lysine rich histone H1 (H1) or Myelin basic protein (Mbp) are used in the assay as the phosphorylation acceptor-protein because they are readily available and serve as good substrates for protein kinase C. Enzyme was prepared from baculovirus-insect cell expression systems.
(§2) In the screening assay, phosphatidylserine (PS) and DAG were co-sonicated to form unilamellar and multilamellar vesicles. The concentration of lipids in the assay were suboptimal to maximize the detection potential of the assay for inhibitors or activators. Potential effector compounds were added to the assay in dimethylsulfoxide at four concentrations to give final inhibitor concentrations of 1, 10, 50, and 150 μM, respectively.
(§3) The assay was started with the addition of enzyme and stopped after 10 min by the addition of 25% trichloroacetic acid (TCA) and 1.0 mg/ml bovine serum albumin (BSA). The radioactive histone product was retained and washed on glass fiber filters that allow the unreacted P-ATP to pass through. The amount of phosphorylation was determined by measuring radioactivity with a scintillation counter. Controls were included in every assay to measure background activity in the absence of enzyme, activity in the absence of lipids, and the maximum enzyme activity with saturating levels of the activator lipids.
(§4) Results of the protein kinase C assay are shown in Table 4 in columns labeled α, βII, γ, δ, ε, and .zeta. which represent various PKC isoenzymes. Results are show as IC50, which is the concentration of test compound needed to inhibit 50% of the protein kinase C activity in controls.

PKC isoenzyme ζ = target: T2, PKC isoenzyme ζ (Homo sapiens, UniProt Q05513); experiment: Protein kinase C inhibition assay, PKC isoenzyme ζ; format: biochemical
T2 construct: made in house; host or cells: baculovirus-insect cell expression system
T2 sequence (Q05513 1-592): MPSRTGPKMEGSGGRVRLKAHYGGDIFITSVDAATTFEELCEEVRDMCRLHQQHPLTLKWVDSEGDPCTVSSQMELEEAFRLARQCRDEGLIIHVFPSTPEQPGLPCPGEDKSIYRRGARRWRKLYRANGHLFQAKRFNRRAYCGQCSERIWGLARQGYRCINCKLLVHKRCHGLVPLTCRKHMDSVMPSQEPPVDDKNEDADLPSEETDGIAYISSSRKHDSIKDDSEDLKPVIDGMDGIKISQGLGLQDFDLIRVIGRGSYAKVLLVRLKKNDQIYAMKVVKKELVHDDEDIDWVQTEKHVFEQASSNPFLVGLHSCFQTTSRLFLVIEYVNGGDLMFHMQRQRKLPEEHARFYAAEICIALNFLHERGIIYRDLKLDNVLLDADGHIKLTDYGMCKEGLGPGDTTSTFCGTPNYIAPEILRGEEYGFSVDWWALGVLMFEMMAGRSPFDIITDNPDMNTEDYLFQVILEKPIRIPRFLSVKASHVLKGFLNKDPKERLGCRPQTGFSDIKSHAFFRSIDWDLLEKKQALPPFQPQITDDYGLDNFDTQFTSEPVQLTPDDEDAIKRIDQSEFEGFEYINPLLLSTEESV
Experimental: as §1, §2, §3, §4

[1] = test system: MCF-7 human breast tumor cell line; experiment: Human Tumor Cell Growth Inhibition (3H-thymidine incorporation); format: cell-based
Experimental: MCF-7 a human breast tumor cell line was obtained from the National Cancer Institute, Frederick, Md. Tumor cells were trypsinized with 0.05% trypsin obtained from GIBCO (Grand Island Biological Co. Laboratories, Grand Island, N.Y.), counted with a hemacytometer and seeded at a concentration of 7,500 cells/well in a 96 well microtiter plate and allowed to attach to the surface overnight. To determine a concentration response, test agents were serially diluted an […] added at 2× final concentration to quadruplicate cultures to bring the total volume of each well to […]. The microtiter plate was then incubated at 37° C., 5% CO2 for 24 hrs with ^3 H-thymidine added at a concentration of 0.5 mCi/well in […] of 0.05% trypsin (GIBCO) was added to each well. Cells were checked microscopically to determine detachment from surfaces, and plates were harvested with a cell harvester (PHD, Cambridge Technology, Inc.). Filter paper corresponding to wells were placed in scintillation vials and counted to determine the amount ^3 H-thymidine incorporated by the cells. Counts per minute (CPM) of quadruplicate cultures were averaged and a percent of control calculated for each test agent concentration by the following formula: [formula]
The IC50 or concentration necessary to inhibit the proliferation of cells by 50% compared to control, of each test agent was determined by plotting % control vs log concentration for each dilution and then linear forecasting the 50% control value onto the X axis on a Quattro Pro computer program. Only regression values with a correlation coefficient greater then 0.9 were considered acceptable.

PKC isoenzyme βII = target: T3, PKC isoenzyme βII (Homo sapiens, UniProt P05771); experiment: Protein kinase C inhibition assay, PKC isoenzyme βII; format: biochemical
T3 construct: made in house; host or cells: baculovirus-insect cell expression system
Experimental: as §1, §2, §3, §4

[2] = test system: normal human epidermal keratinocyte (NHEK) cells; experiment: Human Keratinocyte Inhibition (3H TdR Assay); format: cell-based; conditions: 24 h incubation, 3H-thymidine
Experimental: Proliferating normal human epidermal keratinocyte (NHEK) cells were obtained in the second passage and grown in keratinocyte growth medium, KGM (Clonetics, Inc.) at 37° C., 5% CO2. The cells were trypsinized (0.25%), centrifuged, counted with a hemocytometer, and seeded at a concentration of 5000 cells in 100 μl well in a 96-well microtiter plate.
After the cells were allowed to attach to the microtiter plate overnight, test agents were titrated to determine the dose response. This was done by adding each test agent dilution in quadruplicate to the plate at 2× final concentration in 100 μl to bring the total volume of each well to 200 μl. Culture media with no test agent added was used as a normal control. Duplicate sets of plates were established.
After twenty-four hours of incubation with test compounds 37° C. and 5% CO2, […] of 0.01 mCi/ml tritiated thymidine (New England Nuclear) was added to each well and allowed to incubate for another 4 hours under the same conditions.
Supernatant was aspirated and discarded and […] of 0.05% trypsin (Gibco) was added to each cell. Cells were checked microscopically to determine detachment from surfaces and then harvested onto glass filters. The filters were then placed in vials to which scintillant was added and counted for one minute each in a scintillation counter.
Determine mean cpm of wells containing test agent (n=4) or KGM control (n=16). Calculate % of control by the formula: [formula]
The IC50, or connection necessary to inhibit 50% of control, of each test agent was determined by plotting % control vs log concentration for each dilution and then linear forecasting the 50% control value onto the X axis on a Quatro Pro computer program. Only regression values with a correlation coefficient greater than 0.9 were considered acceptable.

[3] = Homo sapiens, MCF7, MCF-7, 24 hrs

T3 sequence (P05771 1-673 isoform P05771-2): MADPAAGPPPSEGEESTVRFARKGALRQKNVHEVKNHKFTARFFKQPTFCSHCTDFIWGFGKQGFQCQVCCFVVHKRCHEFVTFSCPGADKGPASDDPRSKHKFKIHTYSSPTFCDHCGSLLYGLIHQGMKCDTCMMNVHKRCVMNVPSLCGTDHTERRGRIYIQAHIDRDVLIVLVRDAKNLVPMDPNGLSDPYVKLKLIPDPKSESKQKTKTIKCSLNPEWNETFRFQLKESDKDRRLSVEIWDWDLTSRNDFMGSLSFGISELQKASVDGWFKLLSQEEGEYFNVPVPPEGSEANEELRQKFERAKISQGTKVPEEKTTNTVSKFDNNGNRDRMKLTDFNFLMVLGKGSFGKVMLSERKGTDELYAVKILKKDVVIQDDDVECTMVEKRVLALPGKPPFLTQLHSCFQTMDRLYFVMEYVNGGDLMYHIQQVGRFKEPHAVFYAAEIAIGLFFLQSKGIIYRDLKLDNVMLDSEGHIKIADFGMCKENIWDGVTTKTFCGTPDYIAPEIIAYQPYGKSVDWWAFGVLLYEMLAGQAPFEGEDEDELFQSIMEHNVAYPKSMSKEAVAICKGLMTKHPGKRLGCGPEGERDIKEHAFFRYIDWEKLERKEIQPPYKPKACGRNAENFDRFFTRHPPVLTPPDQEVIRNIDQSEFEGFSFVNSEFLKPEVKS

Row | Structure (SMILES) | IC50 (PKC isoenzyme α; read-out: IC50 PKC α) | IC50 (PKC isoenzyme ζ; read-out: IC50 PKC .zeta.) | IC50 ([1]; MCF-7, 24 hrs) | IC50 (PKC isoenzyme βII; read-out: IC50 PKC βII) | IC50 [2] | IC50 [1, 3] | IC50 ([2]; Homo sapiens) | IC50 (PKC isoenzyme α; IC50 PKC α) | IC50 (PKC isoenzyme ζ; IC50 PKC .zeta.) | IC50 (PKC isoenzyme βII; IC50 PKC βII)
1 | COc1cnc(NS(=O)(=O)c2ccc(N=C3C=C(Nc4ccc(S(=O)(=O)Nc5ncc(OC)cn5)cc4)C(=O)c4ccccc43)cc2)nc1 [Compound 6h] | 108 µM | 47 µM | 14.9 µM | 97 µM | 1.2 µM | – | – | – | – | –
2 | Cc1cc(C)nc(NS(=O)(=O)c2cc(N=C3C=C(Nc4ccc(C)c(S(=O)(=O)Nc5cc(C)cc(C)n5)c4)C(=O)c4ccccc43)ccc2C)c1 [Compound 3ag] | 7 µM | 28 µM | – | 17 µM | – | 2.4 µM | – | – | – | –
3 | Cc1nnc(NS(=O)(=O)c2ccc(N=C3C=C(Nc4ccc(S(=O)(=O)Nc5nnc(C)s5)cc4)C(=O)c4ccccc43)cc2)s1 [Compound 6e] | 109 µM | 20 µM | – | 24 µM | 8.6 µM | – | – | – | – | –
4 | Cc1nnc(NS(=O)(=O)c2ccc(N=C3C=C(Nc4ccc(S(=O)(=O)Nc5nnc(C)s5)cc4)C(=O)c4ccccc43)cc2)s1 [Compound 3e] | 17 µM | – | – | 14 µM | – | – | 8.7 µM | – | – | –
5 | O=C1C(Nc2ccc(S(=O)(=O)Nc3ccc(Cl)nn3)cc2)=CC(=Nc2ccc(S(=O)(=O)Nc3ccc(Cl)nn3)cc2)c2ccccc21 [Compound 6l] | 44 µM | 9 µM | – | 29 µM | 3.3 µM | – | – | – | – | –
6 | O=C1C(Nc2ccc(S(=O)(=O)Nc3ccccn3)cc2)=CC(=Nc2ccc(S(=O)(=O)Nc3ccccn3)cc2)c2ccccc21 [Compound 3i] | 23 µM | > 150 µM | – | 26 µM | 0.61 µM | 13.8 µM | – | – | – | –
7 | COc1cc(NS(=O)(=O)c2ccc(N=C3C=C(Nc4ccc(S(=O)(=O)Nc5cc(OC)nc(OC)n5)cc4)C(=O)c4ccccc43)cc2)nc(OC)n1 [Compound 3g] | 32 µM | – | – | 25 µM | 0.6 µM | 16.5 µM | – | – | – | –
8 | Cc1cc(NS(=O)(=O)c2ccc(N=C3C=C(Nc4ccc(S(=O)(=O)Nc5cc(C)nc(C)n5)cc4)C(=O)c4ccccc43)cc2)nc(C)n1 [Compound 3d] | 37 µM | – | – | 31 µM | – | 17.2 µM | 2 µM | – | – | –
9 | COc1cnc(NS(=O)(=O)c2ccc(N=C3C=C(Nc4ccc(S(=O)(=O)Nc5ncc(OC)cn5)cc4)C(=O)c4ccccc43)cc2)nc1 [Compound 3h] | 105 µM | – | – | 53 µM | – | 12.2 µM | 0.9 µM | – | – | –
10 | O=C1C(Nc2ccc(S(=O)(=O)NCCNc3ccc([N+](=O)[O-])cn3)cc2)=CC(=Nc2ccc(S(=O)(=O)NCCNc3ccc([N+](=O)[O-])cn3)cc2)c2ccccc21 [Compound 3ac] | – | – | – | – | – | 0.16 µM | 0.08 µM | 85 µM | > 150 µM | 89 µM
11 | O=C1C(Nc2ccc(S(=O)(=O)Nc3ccc(Cl)nn3)cc2)=CC(=Nc2ccc(S(=O)(=O)Nc3ccc(Cl)nn3)cc2)c2ccccc21 [Compound 3l] | 27 µM | 28 µM | – | 24 µM | – | – | 4.3 µM | – | – | –
